How the values were obtained:
[1] = tested on: Human CD34+ hematopoietic progenitor cells; experiment: In vitro Transwell migration of human CD34+ cells towards an SDF-1 gradient; format: cell-based
Method: Human CD34+ hematopoietic progenitor cells were isolated from G-CSF mobilized peripheral blood and incubated with varying concentrations (0.1 μM, 1.0 μM and 10 μM) of the pyrimidine-based BTK inhibitor 1-[(3R)-3-[4-amino-3-(4-phenoxyphenyl)pyrazolo[3,4-d]pyrimidin-1-yl]piperidin-1-yl]prop-2-en-1-one for one hour at 37° C., 5% CO2 in serum free media (0.5% bovine serum albumin in RPMI media). Cells were then transferred to the upper chamber of a Transwell migration plate (5.0 um pore size, Costar Inc.). The lower chamber contained only serum-free media with 100 ng/ml SDF-1. Cells were incubated for five hours at 37° C., 5% CO2 to allow for cell migration from the upper chamber to the lower chamber. Cells that migrated into the lower chamber were counted using a hemocytometer.

[2] = tested on: stem cell migration; conditions: cited from earlier work

Row | SMILES | inhibition of stem cell migration ([1]; 0.1 μM, 1.0 μM and 10 μM, one hour preincubation, five hours migration to 100 ng/ml SDF-1, FIG. 1) | activity at lower concentration than reported for plerixafor ([1]; versus plerixafor (50 μM) in similar assays) [fold] | concentration reported for activity in similar assays [2] [µM]
1 | C=CC(=O)N1CCC[C@@H](n2nc(-c3ccc(Oc4ccccc4)cc3)c3c(N)ncnc32)C1 [Btk inhibitor, 1-[(3R)-3-[4-amino-3-(4-phenoxyphenyl)pyrazolo[3,4-d]pyrimidin-1-yl]piperidin-1-yl]prop-2-en-1-one] | inhibition of stem cell migration was seen at all tested concentrations | 500 | –
2 | c1cc(CN2CCCNCCNCCCNCC2)ccc1CN1CCCNCCNCCCNCC1 [plerixafor] | – | – | 50

Reference: patent US9522917B2, “Bruton's tyrosine kinase inhibitors for hematopoietic mobilization” (Acerta Pharma B.V., priority 2012, dated 2016)
